Results published in publication PMC5361215 (Scientific Reports, 2017).
The star is where a group is joined. X1 = CC(C)CCC[C@@H](C)[C@H]1CC[C@H]2[C@@H]3CC=C4C[C@@H](OC(=O)CCOCCOCCOCCOCCOCCOCCOCCOCCOCCOCCOCCOCCOCCOCCOCCOCCOCCOCCOCCOCCOCCOCCOCCOCCNC(=O)C*)CC[C@]4(C)[C@H]3CC[C@]12C; X2 = CC(C)CCC[C@@H](C)[C@H]1CC[C@H]2[C@@H]3CC=C4C[C@@H](OC(=O)CCOCCOCCOCCOCCNC(=O)C*)CC[C@]4(C)[C@H]3CC[C@]12C; X3 = CC(C)CCC[C@@H](C)[C@H]1CC[C@H]2[C@@H]3CC=C4C[C@@H](OC(=O)C*)CC[C@]4(C)[C@H]3CC[C@]12C

Key:
[1] = tested on: HPIV3; conditions: 24 h
[2] = tested on: Vero cells; conditions: for Cytotoxicity in monolayer culture CC50: 24 h
[3] = tested on: HPIV3; assay type: cell-based
[4] = tested on: NiV G/F mediated fusion; assay type: cell-based
[5] = molecular target: uncleaved HPIV3 F (K108G) (Human parainfluenza 3 virus, UniProt P06828, K108G); assay type: cell-based
Sequence of uncleaved HPIV3 F (K108G) (P06828 19-539 K108G): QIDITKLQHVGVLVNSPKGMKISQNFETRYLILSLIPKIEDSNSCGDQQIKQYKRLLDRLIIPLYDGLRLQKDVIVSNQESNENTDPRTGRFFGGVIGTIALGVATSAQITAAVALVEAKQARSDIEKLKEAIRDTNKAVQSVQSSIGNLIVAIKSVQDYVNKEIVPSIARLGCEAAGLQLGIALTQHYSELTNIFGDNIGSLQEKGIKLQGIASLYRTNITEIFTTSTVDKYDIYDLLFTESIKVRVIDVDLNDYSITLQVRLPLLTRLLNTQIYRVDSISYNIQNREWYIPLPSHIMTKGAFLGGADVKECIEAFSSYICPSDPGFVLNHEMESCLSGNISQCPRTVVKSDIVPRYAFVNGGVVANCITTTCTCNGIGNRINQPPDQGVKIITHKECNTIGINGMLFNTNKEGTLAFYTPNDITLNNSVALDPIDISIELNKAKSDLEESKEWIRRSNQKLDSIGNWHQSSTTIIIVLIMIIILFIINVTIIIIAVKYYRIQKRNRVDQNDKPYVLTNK

[6] = assay type: physicochemical; conditions: pH 7.4
[7] = assay type: binding; conditions: read-out: Kd, dissociation constant for POPC monolayer
[8] = molecular target: RBCs; assay type: binding, human; conditions: pH 7.4; read-out: Apparent Kd towards RBCs
[9] = tested on: HPIV3; assay type: in vivo, cotton rats; conditions: n = 4
[10] = tested on: NiV; design: species or system Syrian golden hamsters (Mesocricetus auratus); conditions: hamster, in vivo, ip, 2 mg/kg
[11] = tested on: trypsin
[12] = hamster, in vivo, ip, 2 mg/kg
[13] = in vivo; conditions: female, Syrian golden, hamster, ip, 2 mg/kg

Compound	IC50 [1] [nM]	IC90 [1] [nM]	Cytotoxicity in monolayer culture CC50 [2]	Inhibition of HPIV3 infection in HAE at 1 μM [3]	Inhibition of HPIV3 infection in HAE at 10 μM [3]	RBCs irreversibly bound (peptide bridging) [5]	Blue-shift of ANS emission on titration with peptide [6] [nm]	Kd [7] [nM]	Kd [8] [nM]	further results
CC[C@H](C)[C@H](NC(=O)[C@H](C)NC(=O)[C@H](CC(N)=O)NC(=O)CNC(=O)[C@H](CC(C)C)NC(=O)[C@H](CC(N)=O)NC(=O)[C@@H](NC(=O)CNC(=O)[C@@H](NC(=O)[C@H](CC(=O)O)NC(=O)[C@H](CC(C)C)NC(=O)[C@H](CCCNC(=N)N)NC(=O)[C@H](CCC(=O)O)NC(=O)[C@H](CC(C)C)NC(=O)[C@H](CO)NC(=O)[C@@H](NC(=O)[C@@H]1CCCN1C(=O)[C@@H]1CCCN1C(C)=O)[C@@H](C)CC)C(C)C)[C@@H](C)O)C(=O)N[C@@H](C)C(=O)N[C@@H](CCCCN)C(=O)N[C@@H](CC(C)C)C(=O)N[C@@H](CCC(=O)O)C(=O)N[C@@H](CC(=O)O)C(=O)N[C@@H](C)C(=O)N[C@@H](CCCCN)C(=O)N[C@@H](CCC(=O)O)C(=O)N[C@@H](CC(C)C)C(=O)N[C@@H](CC(C)C)C(=O)N[C@@H](CCC(=O)O)C(=O)N[C@@H](CO)C(=O)N[C@@H](CO)C(=O)N[C@@H](CC(=O)O)C(=O)N[C@@H](CCC(N)=O)C(=O)N[C@H](C(=O)N[C@@H](CC(C)C)C(=O)N[C@@H](CCCNC(=N)N)C(=O)NCC(=O)N[C@@H](CO)C(=O)NCC(=O)N[C@@H](CO)C(=O)NCC(=O)N[C@@H](CSCC(=O)NCCOCCOCCOCCOCCOCCOCCOCCOCCOCCOCCOCCOCCOCCOCCOCCOCCOCCOCCOCCOCCOCCOCCOCCOCCC(=O)O[C@H]1CC[C@@]2(C)C(=CC[C@H]3[C@@H]4CC[C@H]([C@H](C)CCCC(C)C)[C@@]4(C)CC[C@@H]32)C1)C(N)=O)[C@@H](C)CC [HRCMV PEG 24 Chol, reference compound]	> 2000	> 2000	2,000 nM							
Ac-C(X2)GSGSGVALDPIDISIVLNKAKSDLEESKEWIRRSNGKLDSI-NH2 [Chol-PEG4-VG]		0.1 ± 0.0001	>10,000 nM	only partial inhibition	no virus was produced at any time after infection					
Ac-C(X3)GSGSGVALDPIDISIVLNKAKSDLEESKEWIRRSNGKLDSI-NH2 [Chol-VG]	0.06 ± 0.035	1.7 ± 0.42	9,000 nM							IC50 against NiV fusion [4]: too little effect to determine an IC50; RBCs free (released) [5]: 80%; RBCs reversibly bound (HN-receptor engagement only) [5]: 20%
Ac-VALDPIDISIVLNKAKSDLEESKEWIRRSNGKLDSIGSGSGC(X1)-NH2 [VG-PEG24-Chol]	0.007 ± 0.007	0.1 ± 0.0003	1,300 nM	complete inhibition of infection	no virus was produced at any time after infection	looks similar to VG-Chol	58	77.6 ± 21.7	330	Viral load in cotton rat lungs [9]: significantly decreased the viral load; Survival of hamsters given lethal NiV [10]: significantly improved the survival; Protease degradation, temperature not given [11]: increased degradation significantly; Concentration at which toxicity on cells appears [2]: 1000 nM; Peptide in brain (immuno-histofluorescence) [12]: present in brain parenchyma; Peptide in urine [12]: No peptide was detected in the urine; Cmax [13]: 120 nM
Ac-VALDPIDISIVLNKAKSDLEESKEWIRRSNGKLDSIGSGSGC(X2)-NH2 [VG-PEG4-Chol]	0.03 ± 0.04	0.7 ± 0.007	4,500 nM	only partial inhibition		more than 50%	63	67.9 ± 14.2	440	Decrease of HPIV3 viral titer in HAE at day 2 after infection [3]: approximately two logs; Decrease of HPIV3 viral titer in HAE at day 5 [3]: approximately one log
Ac-VALDPIDISIVLNKAKSDLEESKEWIRRSNGKLDSIGSGSGC(X3)-NH2 [VG-Chol]	0.015	0.7 ± 0.26	10,000 nM				67	62.3 ± 20.3	540	
